According to patent publication US20070202047A1, “Polyamine-substituted ligands for use as contrast agents” (priority 2006, published 2007):
Values joined by “and” are separate entries in the source; they are usually repeats but may differ in a detail not shown here. Equal values may be shown once.

Key:
[1] = system: subcutaneous MH3924A tumor; assay: MRI of ACI rats bearing a subcutaneous MH3924A tumor; assay type: in vivo, rat; settings: 0.1 mmol/kg i.v., 2.35 T
Procedure: Animal models. For in vivo tumor studies 2×10^6 MH3924A tumor cells were injected subcutaneously into the right thigh of male ACI rats (Charles River, Sulzfeld, Germany) weighing 220 to 260 g. All animal experiments were performed in compliance with the German Animal Protection Laws (Permission 35-9185.81/G-7-03, Reg.-Praesidium, Karlsruhe, Germany).
MRI. At 25 days after inoculation, when tumors had reached a diameter of ca. 10-15 mm, the MR imaging experiments were initiated. ACI rats were anesthetized by intravenous injection of ketamin (Ketanest®, 0.1 mg/g body wt.; Parke-Davis, Berlin, Germany). Then a dose of 0.1 mmol/kg Magnevist® or Gadovist® (Schering, Berlin, Germany) or one of the synthesized agents Gd-3.1., Gd-5.1. or Gd-6.1. was injected intravenously into a lateral tail vein. For one experiment a higher dose (0.36 mmol/kg) of Magnevist® was used. Individual rats were examined by MRI at 1 h and 24 h post Gd, in the case of Magnevist® also at ca. 15 min post Gd. Proton imaging studies were performed at 2.35 T (100.3 MHz) with a Biospec 24/40 instrument (Bruker BioSpin MRI, Ettlingen, Germany). […] Two transaxial multislice imaging protocols were applied with a field of view of 70×70 mm, 128 time-domain data points, 96 phase-encoding steps, and 16 slices of 2 mm thickness. A multi-spin-echo sequence was used for proton-density and T2-weighted images (repetition time TR=2 s, 12 echoes with echo times TE of 8, 16, 24, . . . 96 ms, number of averages=1), and a spoiled gradient-echo sequence was used for T1-weighted imaging (TR=212 ms, TE=5 ms, flip angle=60°, number of averages=3). The data were Fourier transformed to give a 128×128 image matrix with 0.55 mm pixel resolution. Analogous T1-weighted images with coronal slices were acquired with a field of view of 80×80 mm and 3-mm slice thickness.
Imaging viewing, ROI analysis and export of TIFF files was performed with the freeware MRIcro from Chris Rorden (http://people.cas.sc.edu/rorden/mricro.html).

[2] = system: MH3924A Morris hepatoma cells; assay: Intracellular uptake of gadolinium complexes (ICP-MS); assay type: cell-based, rat; settings: MH3924A cells; for intracellular uptake of gadolinium complex: 24-h incubation
Procedure: Cell culture. B16 melanoma cells (mouse) and MH3924A Morris hepatoma cells (rat) were obtained from the German Cancer Research Center (DKFZ) tumor bank and grown at 37° C. as stock cultures in RPMI 1640 supplemented with 10% fetal calf serum and 1% glutamine as standard medium under a 5% CO2 atmosphere (all components: Pan Biotech GmbH, Aidenbach, Germany). For contrast agent uptake studies 10^6 cells were inoculated into 25 cm^2 culture flasks (BD Biosciences, Bedford, USA) and grown for 24 h in 10 mL of the standard culture medium. Cells were then incubated for an additional 24 h (1 h for temperature dependence studies) with fresh medium containing 0, 1, 2.5, 5 or 10 μM of the selected gadolinium complex (three replicate flasks for each incubation). Afterwards the medium was removed, cells were trypsinated, washed twice, resuspended in culture medium and counted (typical yields: 3.5-6 million cells). For comparison 2.5×10^5 human melanocytes (Promo Cell, Heidelberg, Germany) were incubated for 24 h with melanocyte growth medium (Promo Cell, Heidelberg, Germany) containing 0, 1, 2.5, 5 or 10 μM of the selected gadolinium complex (two replicate flasks for each incubation). The work up procedure was as described above typically yielding 2.5×10^5 cells. Cultured human hepatocytes (Cytonet GmbH, Weinheim, Germany) embedded in a collagen matrix in a 12 well microtiter plate, with 6×10^5 viable cells per well were incubated for 24 h in hepatocyte growth medium (Cytonet GmbH, Weinheim, Germany) containing the same concentration series of selected gadolinium complexes. Afterwards the medium was removed, cells were separated using collagenase (Roche Diagnostics, Mannheim, Germany). After digestion the cells were washed twice with PBS, resuspended in culture medium and counted (typical yields: 6×10^5 cells per tube). The intracellular gadolinium content was determined by ICP-MS as described below.
ICP-MS. Samples containing the above mentioned number of harvested cells were digested with 50% concentrated HNO3 (Superselect; Merck, Darmstadt, Germany) under microwave heating with a Mars 5 apparatus (CEM GmbH, Kamp-Lintfort, Germany). To each sample 100 μL of an aqueous solution of rhodium chloride (1 μg/mL) were added so that Rh-103 could be used as an internal quantification standard. Gd-160 measurements were performed with the ICP-MS instrument mentioned above. The gadolinium concentrations were determined using standard curves created prior to cell analyses. For each uptake incubation condition triplicate cell samples were analyzed, and Gd content for each sample was recorded as the mean of two MS determinations.
Intracellular Uptake of Gadolinium Complexes. B16 melanoma and MH3924A hepatoma cells as well as human melanocytes and hepatocytes were incubated for 24 h in the presence of the gadolinium complexes shown in FIG. 1, using concentrations in the range of 1-10 μM. Incubations with the unsubstituted [Gd(DTPA)(H2O)]^2−complex (Magnevist®) served as controls. Following cell harvest and hydrolysis, inductively coupled plasma mass spectrometry (ICP-MS) with direct detection of gadolinium was used to quantitate complex uptake (triplicate cultures for each incubation).
Cell Uptake Studies. A493 (human kidney), B16 melanoma cells (mouse), HeLa (human cervix), MCF-7 (human breats), MH3924A (Morris hepatoma) cells (rat) and 3T3 NIH (mouse fibroblasts) were obtained from the DKFZ tumor cell collection. 3×10^6 cells of each cell type were grown for 24 hours in culture flasks. Afterwards they were incubated for 1 hour in 10 mL culture media containing 0, 10, 50 and 100 μM of Gd-2.2. Gd-3.2 or Gd-4.2. Afterwards the medium was removed, the cells were trypsinated, washed twice, resuspended in culture medium and counted. The gadolinium uptake was determined in triplicate. […] cells were incubated with 0, 1, 2.5, 5 and 10 μM of the Gd-1.2. and Gd-5.2. for 24 h. […]

[3] = molecular target: T1, human serum albumin (Homo sapiens, UniProt P02768); assay: Serum albumin binding (ultrafiltration, ICP-MS); assay type: in vitro ADME; settings: 20 μM complex, 40 g/L HSA, 37° C.; for binding of complex to human serum albumin: 30 or 90 min
T1 construct: purchased Behring, Bern, Switzerland
Procedure: Serum albumin binding. Solutions containing 20 μM Gd-3.1., Gd-5.1. or Gd-6.1. and 40 g/L human serum albumin (Behring, Bern, Switzerland) were incubated at 37° C. for 30 or 90 min. The solutions were subjected to ultrafiltration (filter cutoff 20 kD; Sartorius, Göttingen, Germany), and the amount of unbound complex was determined in the ultrafiltrate with ICP-MS (n=2).
HSA Binding: 20 μM solutions of the complexes were incubated at 37° C. for 30 and 90 minutes in a solution of 40 g HSA/L (Behring, Bern; Switzerland). The amount of unbound complex was determined in ultrafiltrates with ICP-MS.

T1 sequence (P02768 25-609): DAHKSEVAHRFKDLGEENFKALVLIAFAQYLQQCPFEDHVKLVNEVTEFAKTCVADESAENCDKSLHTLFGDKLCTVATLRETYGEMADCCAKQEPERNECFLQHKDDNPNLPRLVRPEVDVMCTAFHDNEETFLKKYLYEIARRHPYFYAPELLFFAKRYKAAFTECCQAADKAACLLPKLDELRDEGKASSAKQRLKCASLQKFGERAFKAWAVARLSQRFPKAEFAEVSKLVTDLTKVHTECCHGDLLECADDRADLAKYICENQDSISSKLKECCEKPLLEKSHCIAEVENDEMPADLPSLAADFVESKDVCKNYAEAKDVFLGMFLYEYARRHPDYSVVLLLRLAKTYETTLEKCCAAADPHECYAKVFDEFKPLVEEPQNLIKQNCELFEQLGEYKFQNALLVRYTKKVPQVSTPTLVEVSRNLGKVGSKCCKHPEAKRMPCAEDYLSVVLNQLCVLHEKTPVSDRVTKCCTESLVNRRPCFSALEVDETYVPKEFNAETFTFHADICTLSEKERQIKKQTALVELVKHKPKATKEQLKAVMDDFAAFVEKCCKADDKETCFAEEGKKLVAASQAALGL

Row | complex found to be free (unbound) ([3]; ultrafiltrate) | SMILES | contrast ratio tumor vs. muscle tissue, T1 weighting ([1]; 1 h post Gd) | contrast ratio tumor vs. muscle tissue, T1 weighting ([1]; 24 h post Gd) | intracellular uptake of gadolinium complex ([2]; 10 μM) | binding of complex to human serum albumin [3] | observed factor of decrease in uptake at 4° C. vs. 37° C. ([2]; 1 h (FIG. 3A)) | uptake over 1 h at 4° C. ([2]; 1 h, 4° C., 10 μM) | uptake over 1 h at 37° C. ([2]; 1 h, 37° C., 10 μM)
1 | 93±6% | CCN(CC)CCNC(=O)CN(CCN(CCN(CC(=O)[O-])CC(=O)N(CCN)CCN)CC(=O)[O-])CC(=O)[O-].[Gd+3] [Gd-3.1] | 1.22 | 1.11 | 0.175±0.0013 fmol/cell and 0.175 fmol/cell | no significant binding of complex to protein |  |  | 
2 |  | NCCN(CCN)C(=O)CN(CCN(CCN(CC(=O)[O-])CC(=O)N(CCN)CCN)CC(=O)[O-])CC(=O)[O-].[Gd+3] [Gd-5.1] | 1.11 | 1.08 | 0.053±0.005 fmol/cell | no significant binding of complex to protein | ~6.5 | 0.00064±0.00004 fmol/cell | 0.008±0.00041 fmol/cell
3 |  | NCCCCN(CCCN)C(=O)CN(CCN(CCN(CC(=O)[O-])CC(=O)N(CCCN)CCCCN)CC(=O)[O-])CC(=O)[O-].[Gd+3] [Gd-6.1] | 1.49 | 1.21 | 0.108 fmol/cell | no significant binding of complex to protein |  |  | 
